From ChEMBL document CHEMBL1138025, “Nocathiacin I analogues: synthesis, in vitro and in vivo biological activity of novel semi-synthetic thiazolyl peptide antibiotics” (Bioorg Med Chem Lett, 2004)
≈ marks a conversion by molar mass, not a printed value.

What was measured:
[1] = biological target: Neuronal acetylcholine receptor; alpha4/beta2 (Rattus norvegicus, UniProt P09483+P12390); test: Inhibition of [3H]- cytisine binding to Nicotinic acetylcholine receptor alpha4-beta2 of rat cortical membranes; assay type: cell membranes, Membrane
Neuronal acetylcholine receptor; alpha4/beta2, sequence (P09483 whole entry): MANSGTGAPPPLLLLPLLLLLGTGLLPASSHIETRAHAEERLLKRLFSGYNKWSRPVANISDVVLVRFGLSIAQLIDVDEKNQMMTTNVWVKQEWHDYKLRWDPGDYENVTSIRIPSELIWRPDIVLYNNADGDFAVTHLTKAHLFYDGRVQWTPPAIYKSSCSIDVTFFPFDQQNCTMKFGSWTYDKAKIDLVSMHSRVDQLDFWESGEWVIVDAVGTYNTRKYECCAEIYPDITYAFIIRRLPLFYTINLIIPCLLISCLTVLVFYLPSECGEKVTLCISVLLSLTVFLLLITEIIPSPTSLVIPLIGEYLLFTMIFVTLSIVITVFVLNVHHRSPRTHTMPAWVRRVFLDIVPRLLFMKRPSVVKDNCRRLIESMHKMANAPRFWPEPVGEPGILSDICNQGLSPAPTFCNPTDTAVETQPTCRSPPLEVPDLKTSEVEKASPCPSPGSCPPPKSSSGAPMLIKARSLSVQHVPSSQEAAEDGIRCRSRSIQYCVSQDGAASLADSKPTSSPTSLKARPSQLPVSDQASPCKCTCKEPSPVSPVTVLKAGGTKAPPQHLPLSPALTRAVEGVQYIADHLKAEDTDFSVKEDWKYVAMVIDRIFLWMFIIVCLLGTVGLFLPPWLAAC
Neuronal acetylcholine receptor; alpha4/beta2, sequence (P12390 whole entry): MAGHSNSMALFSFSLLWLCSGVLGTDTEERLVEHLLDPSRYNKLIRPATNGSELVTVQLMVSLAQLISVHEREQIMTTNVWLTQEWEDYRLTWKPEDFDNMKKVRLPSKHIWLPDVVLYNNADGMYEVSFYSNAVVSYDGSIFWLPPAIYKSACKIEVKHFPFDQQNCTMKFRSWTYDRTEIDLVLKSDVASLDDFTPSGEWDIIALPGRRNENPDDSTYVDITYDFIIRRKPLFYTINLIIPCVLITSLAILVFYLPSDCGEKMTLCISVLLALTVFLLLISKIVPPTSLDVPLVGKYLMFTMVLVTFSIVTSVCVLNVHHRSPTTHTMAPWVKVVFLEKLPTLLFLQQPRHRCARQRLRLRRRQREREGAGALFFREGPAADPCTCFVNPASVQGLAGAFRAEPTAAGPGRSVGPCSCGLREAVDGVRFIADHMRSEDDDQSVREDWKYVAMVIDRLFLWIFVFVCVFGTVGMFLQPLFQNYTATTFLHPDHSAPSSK

Mus musculus [2] = organism: Mus musculus; test: Effective concentration showing antinociception activity was determined by tail flick test in mouse; assay type: functional, organism-based
[3] = Equilibrium water solubility at pH 2.7; assay type: physicochemical
Mus musculus [4] = test: In vivo efficacy (PD50) against lethal Staphylococcus aureus systemic infection model in mice; assay type: functional; details: read-out: PD50
Staphylococcus aureus = test: In vitro antibacterial activity against methicillin-sensitive Staphylococcus aureus A15090; assay type: functional
Enterococcus faecalis = test: In vitro antibacterial activity against methicillin-sensitive Enterococcus faecalis A20688; assay type: functional
Streptococcus pneumoniae = test: In vitro antibacterial activity against penicillin-resistant Streptococcus pneumoniae A28272; assay type: functional
[5] = Equilibrium water solubility at pH 3.9; assay type: physicochemical
[6] = Equilibrium water solubility at pH 3.3; assay type: physicochemical
[7] = Equilibrium water solubility at pH 3.2; assay type: physicochemical
[8] = Equilibrium water solubility at pH 2.8; assay type: physicochemical
[9] = Equilibrium water solubility at pH 3.5; assay type: physicochemical
[10] = Equilibrium water solubility at pH 3.8; assay type: physicochemical
[11] = Equilibrium water solubility at pH 2.6; assay type: physicochemical
[12] = Equilibrium water solubility at pH 4.0; assay type: physicochemical
[13] = Equilibrium water solubility at pH 2.9; assay type: physicochemical

SMILES	ED50 (Mus musculus [4]) [mg/kg]	MIC (Staphylococcus aureus) [µg/mL]	MIC (Enterococcus faecalis) [µg/mL]	MIC (Streptococcus pneumoniae) [µg/mL]	also measured
Clc1ccc(C2CC3CCC2CN3)cn1 (stereo unspecified)	–	–	–	–	Ki [1]: 0.34 nM; EC50 (Mus musculus [2]): 1.4 mg/kg
CO/C(C)=C1/NC(=O)[C@H]([C@@H](C)O)NC(=O)c2csc(n2)-c2cc(O)c(-c3nc(C(=O)NC(CN4CCN(C(C)=O)CC4)C(N)=O)cs3)nc2-c2csc(n2)[C@@H]2COC(=O)c3c4c5c(cccc5n3O)COC(=O)[C@@H](O[C@H]3C[C@](C)(O)[C@H](N(C)C)[C@H](C)O3)[C@@H](OC4)[C@H](NC(=O)c3csc1n3)c1nc(cs1)C(=O)N2 (stereo partly specified)	5	0.5 (≈ 0.319 µM)	2 (≈ 1.28 µM)	0.03 (≈ 0.0192 µM)	solubility thermodynamic [3]: > 2400 µg/mL
CO/C(C)=C1/NC(=O)[C@H]([C@@H](C)O)NC(=O)c2csc(n2)-c2cc(O)c(-c3nc(C(=O)NC(CN(C)CCCn4ccnc4)C(N)=O)cs3)nc2-c2csc(n2)[C@@H]2COC(=O)c3c4c5c(cccc5n3O)COC(=O)[C@@H](O[C@H]3C[C@](C)(O)[C@H](N(C)C)[C@H](C)O3)[C@@H](OC4)[C@H](NC(=O)c3csc1n3)c1nc(cs1)C(=O)N2 (stereo partly specified)	5	0.12 (≈ 0.0761 µM)	0.12 (≈ 0.0761 µM)	0.01 (≈ 0.00634 µM)	solubility thermodynamic [5]: > 10600 µg/mL
CO/C(C)=C1/NC(=O)[C@H]([C@@H](C)O)NC(=O)c2csc(n2)-c2cc(O)c(-c3nc(C(=O)NC(CN4CCN(CC(=O)O)CC4)C(N)=O)cs3)nc2-c2csc(n2)[C@@H]2COC(=O)c3c4c5c(cccc5n3O)COC(=O)[C@@H](O[C@H]3C[C@](C)(O)[C@H](N(C)C)[C@H](C)O3)[C@@H](OC4)[C@H](NC(=O)c3csc1n3)c1nc(cs1)C(=O)N2 (stereo partly specified)	> 10	1 (≈ 0.632 µM)	1 (≈ 0.632 µM)	0.03 (≈ 0.019 µM)	solubility thermodynamic [6]: > 2600 µg/mL
CO/C(C)=C1/NC(=O)[C@H]([C@@H](C)O)NC(=O)c2csc(n2)-c2cc(O)c(-c3nc(C(=O)NC(CNCCOCCOCCO)C(N)=O)cs3)nc2-c2csc(n2)[C@@H]2COC(=O)c3c4c5c(cccc5n3O)COC(=O)[C@@H](O[C@H]3C[C@](C)(O)[C@H](N(C)C)[C@H](C)O3)[C@@H](OC4)[C@H](NC(=O)c3csc1n3)c1nc(cs1)C(=O)N2 (stereo partly specified)	4.6	0.25 (≈ 0.158 µM)	0.5 (≈ 0.315 µM)	0.06 (≈ 0.0378 µM)	solubility thermodynamic [6]: > 3100 µg/mL
CO/C(C)=C1/NC(=O)[C@H]([C@@H](C)O)NC(=O)c2csc(n2)-c2cc(O)c(-c3nc(C(=O)NC(CNCCOCCOCCOCCN)C(N)=O)cs3)nc2-c2csc(n2)[C@@H]2COC(=O)c3c4c5c(cccc5n3O)COC(=O)[C@@H](O[C@H]3C[C@](C)(O)[C@H](N(C)C)[C@H](C)O3)[C@@H](OC4)[C@H](NC(=O)c3csc1n3)c1nc(cs1)C(=O)N2 (stereo partly specified)	> 10	1 (≈ 0.614 µM)	1 (≈ 0.614 µM)	0.25 (≈ 0.153 µM)	solubility thermodynamic [7]: > 2800 µg/mL
CO/C(C)=C1/NC(=O)[C@H]([C@@H](C)O)NC(=O)c2csc(n2)-c2cc(O)c(-c3nc(C(=O)NC(CN(C)CCC(=O)Nc4ccncc4)C(N)=O)cs3)nc2-c2csc(n2)[C@@H]2COC(=O)c3c4c5c(cccc5n3O)COC(=O)[C@@H](O[C@H]3C[C@](C)(O)[C@H](N(C)C)[C@H](C)O3)[C@@H](OC4)[C@H](NC(=O)c3csc1n3)c1nc(cs1)C(=O)N2 (stereo partly specified)	8.7	0.5 (≈ 0.309 µM)	0.5 (≈ 0.309 µM)	0.03 (≈ 0.0186 µM)	solubility thermodynamic [8]: > 3000 µg/mL
CO/C(C)=C1/NC(=O)[C@H]([C@@H](C)O)NC(=O)c2csc(n2)-c2cc(O)c(-c3nc(C(=O)NC(CN(C)C)C(N)=O)cs3)nc2-c2csc(n2)[C@@H]2COC(=O)c3c4c5c(cccc5n3O)COC(=O)[C@@H](O[C@H]3C[C@](C)(O)[C@H](N(C)C)[C@H](C)O3)[C@@H](OC4)[C@H](NC(=O)c3csc1n3)c1nc(cs1)C(=O)N2 (stereo partly specified)	< 0.62	0.06 (≈ 0.0405 µM)	0.12 (≈ 0.0809 µM)	0.03 (≈ 0.0202 µM)	solubility thermodynamic [6]: > 10000 µg/mL
COCCOCCOCCOCCN1CCN(CC(NC(=O)c2csc(-c3nc4c(cc3O)-c3nc(cs3)C(=O)N[C@@H]([C@@H](C)O)C(=O)N/C(=C(\C)OC)c3nc(cs3)C(=O)N[C@@H]3c5nc(cs5)C(=O)N[C@@H](COC(=O)c5c6c7c(cccc7n5O)COC(=O)[C@@H](O[C@H]5C[C@](C)(O)[C@H](N(C)C)[C@H](C)O5)[C@H]3OC6)c3nc-4cs3)n2)C(N)=O)CC1 (stereo partly specified)	1.5	0.5 (≈ 0.292 µM)	4 (≈ 2.33 µM)	0.25 (≈ 0.146 µM)	solubility thermodynamic [9]: > 1500 µg/mL
CO/C(C)=C1/NC(=O)[C@H]([C@@H](C)O)NC(=O)c2csc(n2)-c2cc(O)c(-c3nc(C(=O)NC(CN4CCC(O)CC4)C(N)=O)cs3)nc2-c2csc(n2)[C@@H]2COC(=O)c3c4c5c(cccc5n3O)COC(=O)[C@@H](O[C@H]3C[C@](C)(O)[C@H](N(C)C)[C@H](C)O3)[C@@H](OC4)[C@H](NC(=O)c3csc1n3)c1nc(cs1)C(=O)N2 (stereo partly specified)	2.1	0.06 (≈ 0.039 µM)	0.25 (≈ 0.162 µM)	0.007 (≈ 0.00455 µM)	solubility thermodynamic [10]: > 2700 µg/mL
CNCCNCC(NC(=O)c1csc(-c2nc3c(cc2O)-c2nc(cs2)C(=O)N[C@@H]([C@@H](C)O)C(=O)N/C(=C(\C)OC)c2nc(cs2)C(=O)N[C@@H]2c4nc(cs4)C(=O)N[C@@H](COC(=O)c4c5c6c(cccc6n4O)COC(=O)[C@@H](O[C@H]4C[C@](C)(O)[C@H](N(C)C)[C@H](C)O4)[C@H]2OC5)c2nc-3cs2)n1)C(N)=O (stereo partly specified)	–	0.25 (≈ 0.165 µM)	0.5 (≈ 0.331 µM)	0.03 (≈ 0.0198 µM)	solubility thermodynamic [11]: > 2500 µg/mL
C=C(NC(=O)c1csc(-c2nc3c(cc2O)-c2nc(cs2)C(=O)N[C@@H]([C@@H](C)O)C(=O)N/C(=C(\C)OC)c2nc(cs2)C(=O)N[C@@H]2c4nc(cs4)C(=O)N[C@@H](COC(=O)c4c5c6c(cccc6n4O)COC(=O)C(O[C@H]4C[C@](C)(O)[C@H](N(C)C)[C@H](C)O4)[C@H]2OC5)c2nc-3cs2)n1)C(N)=O (stereo partly specified)	0.8	0.007 (≈ 0.00487 µM)	0.03 (≈ 0.0209 µM)	0.001 (≈ 0.000696 µM)	solubility thermodynamic [12]: 340 µg/mL (≈ 237 µM)
CNCC(NC(=O)c1csc(-c2nc3c(cc2O)-c2nc(cs2)C(=O)N[C@@H]([C@@H](C)O)C(=O)N/C(=C(\C)OC)c2nc(cs2)C(=O)N[C@@H]2c4nc(cs4)C(=O)N[C@@H](COC(=O)c4c5c6c(cccc6n4O)COC(=O)[C@@H](O[C@H]4C[C@](C)(O)[C@H](N(C)C)[C@H](C)O4)[C@H]2OC5)c2nc-3cs2)n1)C(N)=O (stereo partly specified)	1.6	2 (≈ 1.36 µM)	8 (≈ 5.45 µM)	0.001 (≈ 0.000681 µM)	solubility thermodynamic [13]: > 3500 µg/mL
CO/C(C)=C1/NC(=O)C([C@@H](C)O)NC(=O)c2csc(n2)-c2cc(O)c(-c3nc(C(=O)NC(CNCCCn4ccnc4)C(N)=O)cs3)nc2-c2csc(n2)[C@@H]2COC(=O)c3c4c5c(cccc5n3O)COC(=O)[C@@H](O[C@H]3C[C@](C)(O)[C@H](N(C)C)[C@H](C)O3)[C@@H](OC4)[C@H](NC(=O)c3csc1n3)c1nc(cs1)C(=O)N2 (stereo partly specified)	10	0.5 (≈ 0.32 µM)	1 (≈ 0.64 µM)	0.06 (≈ 0.0384 µM)	solubility thermodynamic [7]: > 10000 µg/mL
CO/C(C)=C1/NC(=O)[C@H]([C@@H](C)O)NC(=O)c2csc(n2)-c2cc(O)c(-c3nc(C(=O)NC(CNCCN4CCN(C)CC4)C(N)=O)cs3)nc2-c2csc(n2)[C@@H]2COC(=O)c3c4c5c(cccc5n3O)COC(=O)[C@@H](O[C@H]3C[C@](C)(O)[C@H](N(C)C)[C@H](C)O3)[C@@H](OC4)[C@H](NC(=O)c3csc1n3)c1nc(cs1)C(=O)N2 (stereo partly specified)	> 10	0.25 (≈ 0.158 µM)	4 (≈ 2.53 µM)	0.01 (≈ 0.00633 µM)	solubility thermodynamic [8]: > 2900 µg/mL
